Source: publication PMC12467382, “Synthesis and Bioevaluation of Chalcones as Broad-Spectrum Antiviral Compounds Against Single-Stranded RNA Viruses” (Biomolecules, 2025)
Where “and” joins values, the source holds several entries; their conditions need not be identical. Equal entries are not always repeated.

Columns and labels:
Hs27 cells [1] = assay: 48 h MTS growth inhibition assay in Hs27 cells; type: cell-based, human; details: for EC50: Homo sapiens, HS27, 48 h, read-out: Hs27 48 h EC50; for Hs27 48 h EC10: highest concentration giving 90% relative new cell growth after 48 h, 0.5% DMSO
Procedure: A cell growth assay using the MTS reagent was conducted to assess the general toxicity of each chalcone compound. […] Experiments were conducted in triplicate. In a typical experiment, there are two plates. The first is the control plate, which allows one to assess the starting cell population on the day of drug addition (Day 0). The second plate is the test plate where cells are plated and tested with different drug concentrations on Day 0. For example, either CHO cells or Hs27 cells were plated in a 200 µL volume at 1000 cells/well on both the control and test plates and incubated overnight to allow the cells to adhere. On Day 0, 1 μL of PBS was added to the control plate wells so that their total volume was 201 μL. MTS reagent (Promega Cell Titer 96 Aqueous non-radioactive cell proliferation reagent, Promega, Madison, WI, USA) was added (20 μL) to each well on the control plate, and that plate was incubated for 4 h in a 5% CO2 atmosphere at 37 °C and then read on the plate reader.
On Day 0, 1 μL of a 200× stock solution of each chalcone was added to the respected well on the test plate, and each condition was tested in triplicate. Drug solutions were prepared in advance in 100% DMSO and dosed so that the final DMSO concentration was 0.5%. For example, 1 μL of chalcone solution was added to the cells plated in each well in 200 μL of media. Of note, the respective chalcone addition occurred after an initial overnight incubation of each cell line in each well to reach Day 0 (the drugging day). After the chalcone was added, the cells were incubated in 5% CO2 for 48 h at 37 °C. After 48 h, the MTS reagent (Promega, Madison, WI, USA) was added (20 μL), and the test plates were incubated for an additional 4 h, and then, absorbance at 490 nm was measured on a BioTek Synergy MX plate reader. […] IC50 values were determined from the corresponding plot of relative absorbance at 490 nm vs. the drug concentration.
For highly colored materials like the chalcones, it is important to consider the contribution of the compound’s own absorbance to the MTS assay. To correct for the absorbance contribution of the chalcone itself, we measured each chalcone’s absorbance (Chalcone Abs) at 490 nm at the respective concentration (e.g., 10 µM) and subtracted the absorbance of the media background (blank Abs). This net value was then subtracted out of the Day 2 absorbance value to provide the % relative growth via the following equation:(1) % Relative Growth = (Day 2 Abs−Day 2 blank Abs)−Chalcone Abs−blank Abs−(Day 0 Abs−Day 0 blank Abs)/(Day 2 Control Abs −Day 2 blank Abs)−(Day 0 Abs−Day 0 blank Abs) ×100%
With the chalcones in hand, we then evaluated their growth-inhibition properties in Chinese hamster ovary (CHO-K1) cells and human Hs27 fibroblast cells.

Hs27 cells [2] = assay: Propidium iodide (PI) staining cytotoxicity in Hs27 cells by flow cytometry; type: cell-based; details: for PI MTC: 24 h, concentration giving 10% PI+ cells, Hs27 cells, standard curve; for PI+ cells: 10 µM, 24 h post-treatment, untreated control subtracted
Procedure: Chalcone treatments were performed in DMEM supplemented with 10% HI FBS at the indicated concentrations and for indicated periods of time. Chalcone stocks were reconstituted in 100% dimethyl sulfoxide (DMSO) at a concentration of 10 mM and were serially diluted to working concentrations in DMSO. DMSO control treatments to test the effect of the vehicle were performed at volumes corresponding to the volume of chalcone added during each experiment (i.e., 1 µL chalcone DMSO solution/1 mL DMEM [10 µM] utilized alongside the DMSO control of 1 µL/1 mL DMEM). For cytotoxicity assays, untreated controls were subtracted from DMSO and chalcone sample values to account for the background signal.
(§1) For cytotoxicity assays, cells were stained with propidium iodide (PI) at a dilution of 1:100. Cell viability was determined via flow cytometry using the CytoFLEX (Beckman Coulter, Brea, CA, USA). CytExpert software (Beckman Coulter, version 2.4) was used to analyze independent events. PIV5 infection was monitored using flow cytometry via the FITC channel by analyzing GFP expression of individual cells. ZIKV infection was monitored utilizing Flavivirus group antigen–antibody (D1-4G2-4-15; Novus Biologicals, Littleton, CO, USA) staining for the ZIKV envelope protein. Cells were fixed and permeabilized using eBioscience Intracellular Fixation and Permeabilization Buffer (Invitrogen, Thermo Fisher Scientific, MA, USA) according to the manufacturer’s instructions. Secondary staining was performed using an anti-Alexa Fluor 488 (AF488) antibody (Invitrogen, Thermo Fisher Scientific, MA, USA). OC43 infection was monitored utilizing a primary antibody targeted toward the OC43 nucleocapsid protein (NP, MAB9013, Sigma-Aldrich, St. Louis, MO, USA). Secondary staining was performed using an AF488 antibody. Cells were fixed and permeabilized as previously described. LACV infection was monitored utilizing an anti-LACV Gc 807.31ab antibody kindly provided by Andrew Pekosv. Secondary staining was performed using an AF488 antibody. Cells were fixed and permeabilized as previously described.
To determine the actual cytotoxic effects of select chalcones in the series, human fibroblast Hs27 cells were treated with DMSO as a control or treated with each selected chalcone at a concentration of 10 µM. At 24 h post-treatment (hpt), the Hs27 cells were stained with propidium iodide (PI), a stain for cells with permeable plasma membranes, and then processed for flow cytometry (see Figure 4). […] These cytotoxicity findings reflected the relative growth-inhibition properties of 8f, 8l, 8o, 8p, 8s, 8w, 8x, and 8z observed in Table 2 (see Hs27 cell data).
The GFP IC50 was defined as the concentration of chalcone required to inhibit the GFP expression (as measured via flow cytometry) by 50% when compared to DMSO-treated cells. […] To determine these PI MTCs, Hs27 cells were treated with each chalcone at various concentrations for 24 h and then analyzed via flow cytometry for positive PI staining. Untreated controls were subtracted to account for background staining. […] Immediately following infection, media were replaced with chalcone-supplemented media at specified concentrations. GFP expression was analyzed via flow cytometry at 24 hpi.

LACV = LACV Gc protein expression in Hs27 cells by flow cytometry; type: cell-based, La Crosse Virus; details: MOI 10, 24 hpi; for Cells expressing LACV glycoprotein Gc: 10 µM before and after infection, DMSO ~60%
Procedure: La Crosse Virus (LACV) was kindly provided by Andrew Pekosz (Johns Hopkins Bloomberg School of Public Health, Baltimore, MD, USA), grown at 28 °C in C6/36 cells derived from the larvae of the Asian tiger mosquito (ATCC), and titered at 37 °C on Vero cells as previously described. Infections were carried out in DMEM containing 2% HI FBS for 1 h or mock infected with media alone. Cells were washed with PBS and cultured in DMEM containing 2% HI FBS.
as §1
To expand these findings, we evaluated whether these top-performing chalcones inhibited the replication of other RNA viruses. […]

Compound	EC50 (Hs27 cells [1])	Hs27 48 h EC10 (Hs27 cells [1])	PI MTC (Hs27 cells [2])	Inhibition of viral gene expression, LACV (LACV; 10 µM)	PI+ cells (Hs27 cells [2])	Cells expressing LACV glycoprotein Gc (LACV)
COc1ccccc1/C=C/C(=O)c1ccccc1O [Chalcone 8a]	20.3 ± 2.1 µM	0.6 ± 0.04 µM	>15 µM	did not inhibit viral gene expression	–	–
COc1ccc(Br)cc1/C=C/C(=O)c1c(O)cccc1OC [Chalcone 8f]	2.3 ± 0.2 µM	1.4 ± 0.1 µM	4.9 µM	–	52.60% and 40–60%	–
COc1ccc(Br)cc1/C=C/C(=O)c1c(O)cccc1OCc1ccccc1 [Chalcone 8l]	7.8 ± 0.6 µM	6.1 ± 0.5 µM	7.0 µM	–	40–60% and 57.7%	–
CCOc1ccc(Br)cc1/C=C/C(=O)c1c(O)cccc1OCc1ccccc1 [Chalcone 8o]	13.3 ± 1.1 µM	8.3 ± 0.5 µM	10.5 µM	–	< 10% and 8.5%	below 10%
CCOc1ccc(Cl)cc1/C=C/C(=O)c1c(O)cccc1OCc1ccccc1 [Chalcone 8p]	19.3 ± 1.9 µM	8.7 ± 0.7 µM	8.4 µM	–	< 10%	below 10%
COc1ccc(Br)cc1/C=C/C(=O)c1c(O)cccc1OCCC(C)C [Chalcone 8s, (2E)-3-(5-Bromo-2-Methoxy-Phenyl)-1-[2-Hydroxy-6-(3-Methyl-Butoxy)-Phenyl]-Propenone]	13.9 ± 0.5 µM	6.9 ± 0.6 µM	3.5 µM	–	40–60%	–
CCOc1ccc(Br)cc1/C=C/C(=O)c1c(O)cccc1OCc1ccc(-c2ccccc2)cc1 [Chalcone 8v, (2E)-1-[2-(Biphenyl-4-Ylmethoxy)-6-Hydroxy-Phenyl]3-(5-Bromo-2-Ethoxy-Phenyl)-Propenone]	18.4 ± 0.9 µM	3.4 ± 0.2 µM	–	–	–	–
COc1ccc(Br)cc1/C=C/C(=O)c1c(O)cccc1OCc1ccc(-c2ccccc2)cc1 [Chalcone 8w, (2E)-1-[2-(Biphenyl-4-Ylmethoxy)-6-Hydroxy-Phenyl]3-(5-Bromo-2-Methoxy-Phenyl)-Propenone]	8.2 ± 0.5 µM	6.5 ± 0.5 µM	4.5 µM	–	~ 11%	–
COc1ccc(O)cc1/C=C/C(=O)c1c(O)cccc1OCc1ccccc1 [Chalcone 8x, (2E)-1-(2-Benzloxy-6-Hydroxy-Phenyl)-5-(5-Hydroxy-2-Methoxy-Phenyl)-Propenone]	3.4 ± 0.3 µM	1.1 ± 0.07 µM	–	–	40–60%	–
COc1cc(/C=C/C(=O)c2c(O)cccc2OCc2ccccc2)cc(OC)c1OC [Chalcone 8z, (2E)-1-(2-Benzloxy-6-Hydroxy-Phenyl)-3-(3,4,5-Trimethoxy-Phenyl)-Propenone]	5 ± 0.2 µM	4.0 ± 0.2 µM	2.4 µM	–	40–60%	–
